Assays:
Tetranychus urticae = assay: Laboratory test of mite control (Unesp, Jaboticabal); format: in vivo; conditions: dose 30 g-mL/100 L, lab conditions; for Mite control (%) 1 DFA: 1 day following application; for Mite control (%) 2 DFA: 2 days following application; for Mite control (%) 3 DFA: 3 days following application; for Mite control (%) 4 DFA: 4 days following application; for Mite control (%) 7 DFA: 7 days following application
Description: Application of miticide propargite: application to control mites in lab conditions, performed by Unesp in Jaboticabal, SP. Quantitative (control) results are described in table 3. Assessments were made of the plant treated with miticide propargite against the witness plant (untreated).
Application of miticide abamectin: application to control mites in lab conditions, performed by Unesp in Jaboticabal, SP. Quantitative (control) results are described in Chart 4. Assessments were made of the plant treated with miticide abamectin against the witness plant (untreated).
Example 5: Laboratory Test Performed by Unesp in Jaboticabal, SP to Measure Mite Control, Specifically Control of Tetranychus Urticae with 4 Repetitions and 4 Treatments
The first (treatment 1) is a sample of the plant with no treatment (Witness). The second treatment is a sample treated with Folcysteine alone (treatment 2). The third treatment is a plant sample treated only with the agrotoxic of interest, miticide AI4 (based on propargite), identified as treatment 3, and the fourth treatment used a folcysteine-based biostimulant and an agrotoxic of interest, miticide AI4 (propargite-based), identified as treatment 4, applied under laboratory conditions. See the results in the following table:
Example 6: Laboratory Test Performed by Unesp in Jaboticabal, SP to Measure Mite Control, Specifically Control of Tetranychus Urticae with 4 Repetitions and 4 Treatments
The first (treatment 1) is a sample of the plant with no treatment (Witness). The second is a sample treated with Folcysteine alone (treatment 2). The third treatment is a plant sample treated only with the agrotoxic of interest, miticide AI5, and the fourth treatment uses a blend of folcysteine-based biostimulant and an agrotoxic of interest, miticide AI5 (abamectin-based), identified as treatment 4, applied under laboratory conditions.

corn = format: in vivo; conditions: dose 1.50 kg-l/ha

Compound	Mite control (%) 1 DFA (Tetranychus urticae)	Mite control (%) 2 DFA (Tetranychus urticae)	Mite control (%) 3 DFA (Tetranychus urticae)	Mite control (%) 4 DFA (Tetranychus urticae)	Mite control (%) 7 DFA (Tetranychus urticae)	Productivity Index (corn; herbicide alone = 100)	Weight of 1,000 grains Index (corn; herbicide alone = 100)	Productivity (corn; spraying volume 300 l/ha)	Weight of 1,000 grains (corn; spraying volume 300 l/ha)
C#CCOS(=O)OC1CCCCC1Oc1ccc(C(C)(C)C)cc1 (centres unmarked) [Propargite, propargite]	59%	63%	70%	77%	98%				
CP(=O)(O)CCC(N)C(=O)O.N (centres unmarked) [ammonium glufosinate]						100	100	7.142 b kg/ha	25.89 a g
abamectin	20%	20%	20%	45%	62%				
